Measured values from patent publication EP3161491B1, “[…] FOR THE DETECTION OF THE MANIPULATION OF MUSCLE GROWTH IN A DOMESTIC ANIMAL” (Stichting Kwaliteitsgarantie Vleeskalversector, priority 2014, dated 2015).

Assays:
[1] = system: anti-myostatin antibodies
Description: Calves were randomly assigned into treatment groups. Twenty one (21) Holstein-Friesian calves (12 male and 9 female) between 9 - 14 weeks of age were included in the study. […] The control group was only injected with the injection fluids, whereas the second group was treated with the myostatin propeptide fragment. The treatments were administered intramuscularly on day 0, day 35 and day 88 of the treatment. Animals were monitored during 19 weeks from the start of the treatment.
Myostatin propeptide fragment (SEQ ID NO 1) was dissolved in sterile arachis oil, and mixed with ViteSel, Freund's Adjuvant Incomplete, or Freund's Adjuvant Complete for injection. […] The control group was injected with the same injection fluid, but without the added peptide. […]
The coated microplate wells were coated with Imperacer® wash buffer "A" using washer-program "block", block against unspecific interaction with "chimera direct block" solution (240 µl/well, 1 min/RT) and with Imperacer® wash buffer "B". After this treatment, the microplate wells were ready for sample incubation. […]
The wells were subsequently washed with Imperacer® wash buffers "B" and "A". 30 µl/well of ready-to-use Imperacer® PCR-mastermix were added to each well. The wells were sealed using real-time PCR foil, and placed into the Imperacer® reader 50 cycles at 95°C with 12 sec per cycle, at 50°C for 30 sec and at 72°C for 30 sec. […]

[2] = system: myostatin pathway biomarkers; conditions: change relative to non-manipulated reference animal
Description: Example 2 was repeated using bovine samples analysed in Example 1.
Detection Conjugate "CHI-Bovine-IgG" (conjugated antibody: anti-Bovine IgG-heavy and light chain Antibody, Sheep Polyclonal, catalogue number: A10-115; Supplier: Bethyl Laboratories, Inc., USA) was used instead of the mouse conjugate. All other Imperacer conjugates for the additional myostatin pathway biomarkers were prepared using standard methods as described in EP 2189539 ([0106]-[0122]). For the biomarkers p-AKT, p-FOXO, MyOD1, MyoG, FBO32, ALK type 1, Pax3, Myf-5, MuRF1, CDKN1 and CDK2, tissue homogenate instead of serum was used. Table 7: Biomarker analysis
The additional myostatin pathway biomarkers shown in Table 7 were quantified using immune-PCR.

[3] = Observation of general health of calves during the 19 weeks treatment period; format: in vivo, Holstein-Friesian calves; conditions: three intramuscular treatments, 19 weeks observation
Description: Calves were randomly assigned into treatment groups.
All calves were treated with the myostatin propeptide fragment three times with during the observation period. Physical data and samples were collected during the life-time of the calves, such as general health, local reactions, and body weight. Serum samples were collected. Some clinical signs were observed, but they remained within a range that was considered normal for a 19 weeks fattening period. […] The animals were healthy at the time of slaughter and all slaughter samples were collected.

Sequence: CKMSPINMLYFNGKEQIIYG [myostatin propeptide fragment]
- Amount of antibodies measured in sample ([1]; anti-myostatin IgG in calf blood serum, intramuscular treatment on day 0, day 35 and day 88): 382 ng/mL
- levels of measured anti-myostatin IgG antibodies and treatment ([1]; blind and open tests, compared to the negative control animals): clear association
- (P)-SMAD2/ SMAD 3 ([2]; calf sample): -
- Act IIB ([2]; calf serum): +
- IgG anti-myostatin antibodies ([2]; calf serum): +
- Leptin ([2]; calf serum): +
- Myostatin Propeptide ([2]; calf serum): -
- (p)-FOxO ([2]; calf tissue homogenate): +
- ALK type 1 ([2]; calf tissue homogenate): -
- CDK2 ([2]; calf tissue homogenate): +
- CDKN1 A ([2]; calf tissue homogenate): +
- FBXO32 ([2]; calf tissue homogenate): -
- MuRF1 ([2]; calf tissue homogenate): -
- Myf-5 ([2]; calf tissue homogenate): +
- MyoD1 ([2]; calf tissue homogenate): +
- MyoG ([2]; calf tissue homogenate): +
- Pax 3 ([2]; calf tissue homogenate): +
- p-AKT ([2]; calf tissue homogenate): +
- general health of the calves [3]: did not impact the general health of the calves
